According to PubChem BioAssay AID602251 (NMMLSC, 2012):
Calls of active or inactive are those of the source.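 How the source made its calls: active means fitted concentration giving half of the maximal binding block below 66 µM; inactive means the rest.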

These molecules were tested against anti-desmoglein 3 scFv antibody binding to human desmoglein 3 (DSG3) (assay: blockers of pemphigus antibody–desmoglein 3 interaction – biochemical, DSG3-coupled beads, scFv-GFP, flow cytometry, Cherry Pick 1, dose response (AID 602251;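 on binding response, lower = inhibition: 100% = DMSO vehicle binding and 0% = soluble DSG3 blocking control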)). Details: not given.

Structure (SMILES) | EC50 [µM]
Cc1ccc(C(C)C)c(OCC(=O)Nc2ccc(N3CCN(S(C)(=O)=O)CC3)cc2)c1 | 20.9
O=C(O)c1cccc(-n2cccc2/C=C2/NC(=O)N(c3ccc(Cl)cc3)C2=O)c1 | 11.7
O=c1c2ccccc2sn1-c1nccs1 | 12.7
Nc1ccc2nc3c(=O)[nH]c(=S)[nH]c3nc2c1 | 39.1
COc1ccc2cc(-c3cc(C(=O)OCC(=O)NC4CCS(=O)(=O)C4)c4ccccc4n3)ccc2c1 (stereo unspecified) | 19.2
COc1cc(C(=O)Nc2cccc(-c3nc4cc(C)ccc4o3)c2C)cc(OC)c1OC | 24.6
O=[N+]([O-])c1ccc(N=NNc2ccc([N+](=O)[O-])cc2)cc1 | 58.8
COc1ccc(NC(=O)CSc2nc3c([nH]c4ccccc43)c(=O)n2C)c(OC)c1 | 22.4
O=C1c2ccccc2C(=O)N1Cc1nn2c(-c3ccc(Cl)cc3)nnc2s1 | 36
COCCCNC(=O)c1c(N)n(-c2ccc(S(N)(=O)=O)cc2)c2nc3ccccc3nc12 | 25.6
CCCCOC(=O)Nc1sc2nc(C)cc(C)c2c1-n1cccc1 | 41.9
COCCn1c(=NC(=O)CCS(=O)(=O)c2ccccc2)sc2cc(C(=O)OC)ccc21 | 25.4
COc1ccc(-n2c(SCC(=O)Nc3nccs3)nnc2-c2ccc(Cl)cc2)cc1 | 28.1
COc1ccccc1NC(=O)c1cc(C(=O)Nc2ccccc2OC)cc([N+](=O)[O-])c1 | 25.3
O=C(NC1CCCCC1)C(c1ccc(O)cc1)N(CC1CCCO1)C(=O)C1COc2ccccc2O1 (stereo unspecified) | 37.7
O=c1c2c([N+](=O)[O-])cc([N+](=O)[O-])cc2sn1Cc1ccccc1 | 9.8
COc1cccc2c1NC(C(=O)O)C1CC=CC21 (stereo unspecified) | 32.1
COc1ccc(N=C2S/C(=C\c3ccc(OCC(=O)O)cc3)C(=O)N2CCc2c[nH]c3ccccc23)cc1 | 15.8
Nc1ccc2nc(-c3cccc(-c4nc5ccc(N)cc5[nH]4)c3)[nH]c2c1 | 65.2
CC(=O)Nc1cc(=O)c2cccnc2[nH]1 | 25.4
CCc1nnc(NC(=O)CSc2nncc(=O)n2N)s1 | 55
CCC(CC)C(=O)Nc1cccc(S(=O)(=O)c2cccc(NC(=O)C(CC)CC)c2)c1 | 55

Same assay, conditions: at 66.1 µM (top of the series)

Structure (SMILES) | binding response, lower = inhibition
CC(C)(C)NS(=O)(=O)c1ccc(NC(=O)c2cc(-c3ccccc3)nc3ccccc23)cc1 | inactive
CSc1nc(SCC(=O)O)c2sc3nc(-c4ccccc4)c4c(c3c2n1)CCC4 | inactive
O=C(Nc1nc2cc3c(cc2s1)OCCO3)c1ccc(N2C(=O)CCC2=O)cc1 | inactive
COc1ccc(NC(=O)c2ccc3c(c2)C(=O)N(Cc2ccncc2)C3=O)cc1S(N)(=O)=O | inactive
CCOc1ccc(Nc2ncnc3c2cnn3-c2ccccc2)cc1 | inactive
CSc1ccccc1OCc1cc(C(=O)NCCC2=CCCCC2)no1 | inactive
Cc1ccc(O)c(NC(=O)CSc2ccc(Cl)cc2)c1 | inactive
COc1ccc(NC(=O)c2cc(-c3ccc(C)o3)nc3ccccc23)cc1OC | inactive
COc1ccc(CCNC(=O)COc2ccc(-c3ccc(C)cc3)cc2)cc1OC | inactive
CCc1ccc(OCC(=O)Nc2ccc(N3CCN(C(=O)c4ccccc4)CC3)cc2)cc1 | inactive
CCCn1c(C)nc2c(c1=O)c1nc3ccccc3nc1n2-c1ccccc1 | inactive
CCC(=O)N1CCc2cc(S(=O)(=O)N(C)c3ccc(Br)cc3)ccc21 | inactive
O=C(COC(=O)Cc1ccc(-c2ccccc2)cc1)NCc1ccc(F)cc1 | inactive
O=C(Nc1ccc(S(=O)(=O)NCc2ccccc2)cc1)C1CCCCC1 | inactive
O=C(Nc1ccc(N2CCN(C(=O)c3ccccc3)CC2)cc1)c1cc2ccccc2o1 | inactive
CC(=O)c1c(C)n(-c2ccc(C)cc2)c2ccc(O)cc12 | inactive
O=C(COC(=O)c1ccc(S(=O)(=O)N2CCCC2)cc1)NCc1ccc(Cl)cc1 | inactive
COc1ccc(C(=O)Nc2ccc(NC(=O)c3cnccn3)cn2)cc1 | inactive
COc1ccc(NC(=O)c2ccc3c(c2)C(=O)N(Cc2cccnc2)C3=O)c(OC)c1 | inactive
CN(C(=O)COC(=O)c1ccc(-c2ccc(O)cc2)cc1)C1CCS(=O)(=O)C1 (stereo unspecified) | inactive
O=C1OC(COc2ccc(Br)cc2)CN1c1ccccc1 (stereo unspecified) | inactive
COc1ccc(Cl)cc1NC(=O)CSc1nc(NS(=O)(=O)c2ccc(C)cc2)cc(=O)[nH]1 | inactive
O=C(Nc1ccc2oc(=O)ccc2c1)c1ccc(-c2ccccc2[N+](=O)[O-])o1 | inactive

Structure (SMILES) | binding response, lower = inhibition
CCOC(=O)c1cn(-c2ccc([N+](=O)[O-])cc2)c2cc(Cl)c([N+](=O)[O-])cc2c1=O | inactive
CN(C)Cc1cc(O)c(CN(C)C)cc1O | inactive
CN(C)c1nc(N)ncc1-c1ccc(Oc2ccccc2)cc1 | inactive
O=C(Nc1ccc2c(c1)OCO2)C1CCN(c2ccc(S(=O)(=O)N3CCOCC3)cc2)CC1 | inactive
Nc1ncnc2oc(-c3ccco3)c(-c3ccco3)c12 | inactive
COc1cc(OC)cc(N(C(=O)C2COc3ccccc3O2)C(C(=O)NC2CCCCC2)c2ccc(O)cc2)c1 (stereo unspecified) | inactive
COc1ccc(CNC(=O)c2ccc(-c3ccccc3)cc2)cc1OC | inactive
CC(=O)Nc1ccc(-c2cc(-c3ccccc3)nc(-c3ccccc3)n2)cc1 | inactive
Cc1sc(NC(=O)CSc2nnc3scc(-c4ccccc4)n23)c(C#N)c1C | inactive
O=C1NN(c2cccc(Br)c2)C(=O)/C1=C/c1ccc(-c2cc([N+](=O)[O-])ccc2O)o1 | inactive
COc1cc(OC)cc(C(=O)OCc2cc3ccccc3[nH]c2=O)c1 | inactive
Cc1cc(SCC(=O)Nc2ccc3[nH]c(=O)[nH]c3c2)nc2ccccc12 | inactive
Cc1ccc(NC(=O)CSc2ccc(C(N)=O)cc2[N+](=O)[O-])cc1C | inactive
O=C(Nc1ccc(Nc2ccncc2)cc1)c1ccc(Nc2ccnc3ccc([N+](=O)[O-])cc23)cc1 | inactive
CCOC(=O)C1=C(N)n2c(s/c(=C\c3cccnc3)c2=O)=C(C(=O)OC)C1c1cccnc1 (stereo unspecified) | inactive
Cn1c2ccccc2c(=O)c2c(=O)n(Cc3ccco3)c(COc3ccccc3)nc21 | inactive
Cc1cc(C)cc(N(CC(=O)NC2CCC(C)CC2)S(=O)(=O)c2c(C)noc2C)c1 (stereo unspecified) | inactive
COc1ccc(NC(=O)c2cc(-c3ccco3)nc3ccccc23)cc1 | inactive
Cc1ccc(-c2nc3sc(C#N)c(N)n3c(=O)c2C#N)cc1 | inactive
CN1C(=O)/C(=C/c2cccn2-c2ccc3ccccc3c2)C(=O)NC1=S | inactive
O=C(NCCN1C(=O)S/C(=C\c2ccc(Cl)c(Cl)c2)C1=O)c1cnccn1 | inactive
COc1ccc(C(C(=O)NC2CCCCC2)N(CC2CCCO2)C(=O)C2COc3ccccc3O2)cc1OC (stereo unspecified) | inactive
CSCCC(NC(=O)C12CC3CC(CC(C3)C1)C2)C(=O)OCC(=O)c1ccc(C)cc1 (stereo unspecified) | inactive

Structure (SMILES) | binding response, lower = inhibition
COc1ccc(Cl)c(NC(=O)NCCN2CCN(c3ccccc3)CC2)c1 | inactive
NC(=O)c1ccc(NC(=O)CSc2nnc(-c3ccc4c(c3)OCO4)o2)cc1 | inactive
COC(=O)c1sc(NC(=O)c2cc(-c3ccccc3)nc3ccccc23)c(C#N)c1C | inactive
N#Cc1cn(-c2ccccc2)nc1-c1ccc2c(c1)OCCO2 | inactive
O=C(COc1cc2oc(=O)c3c(c2cc1Cl)CCC3)Nc1ccccn1 | inactive
COc1cc(/C=C2/C(=N)N3OC(C)=CC3=NC2=O)ccc1OC(=O)c1ccco1 | inactive
COc1ccc(C2=C(Nc3ccc(F)cc3)c3ccccc3C2=O)cc1 | inactive
CC(=O)Nc1cccc(NC(=O)CSc2ccc(C(F)(F)F)cc2[N+](=O)[O-])c1 | inactive
COc1ccc(N2CCN(C(=O)c3sc4nc(-c5ccc(F)cc5)cn4c3C)CC2)cc1 | inactive
COc1cc(C(C(=O)NC2CCCCC2)N(CCN2CCOCC2)C(=O)C2COc3ccccc3O2)cc(OC)c1OC (stereo unspecified) | inactive
CCc1ccc(-c2cc(C(=O)Nc3ccc(S(=O)(=O)NC(C)=O)cc3)c3ccccc3n2)cc1 | inactive
CCOc1ccc(NC(=O)c2ccc(NC(=O)CSc3nc4ccccc4c(=O)[nH]3)cc2)cc1 | inactive
CCOc1ccc(S(=O)(=O)N2CCN(C(=O)c3ccccc3Cc3ccccc3)CC2)cc1 | inactive
CC(=O)c1c(C)n(-c2ccc(Cl)cc2)c2ccc(O)cc12 | inactive
Cc1cccc(NC(=O)Cn2nnc(C(=O)NCc3cccs3)c2N)c1C | inactive
CCCCN(C)CCNC(=O)c1cc(-c2cccnc2)nc2ccc(S(=O)(=O)N3CCC(C)CC3)cc12 | inactive
CCc1nnc(NC(=O)CSc2ncnc3c2oc2ccccc23)s1 | inactive
COc1ccc(O)c(/C=N/n2c(-c3ccco3)csc2=Nc2cccnc2)c1 | inactive
C=CCSc1nc(N)c(C#N)c(-c2ccccc2)c1C#N | inactive
CN(C(=O)CSc1nc2cc([N+](=O)[O-])ccc2n1-c1ccc(F)cc1)C1CCS(=O)(=O)C1 (stereo unspecified) | inactive
COc1ccccc1CNC(=O)COC(=O)c1ccc(S(=O)(=O)N2CCCCC2)cc1 | inactive
Cc1ccsc1-c1nc(-c2ccccc2)c(-c2ccccc2)[nH]1 | inactive
C#CCn1c(=NC(=O)c2sc3ccccc3c2Cl)sc2cc(S(N)(=O)=O)ccc21 | inactive
